{"source": "ChEMBL document CHEMBL1137532", "about": "“Mutation and inhibition studies of mevalonate 5-diphosphate decarboxylase” (Bioorg Med Chem Lett, 2007)", "molecules": {"B1": {"name": "Diphosphomevalonate decarboxylase (Rattus norvegicus), Q62967 K27A (protein)", "chain": "MASEKPQDLMVTCTAPVNIAVIKYWGARDEALILPINPSLSVTLHQDQLKTTTTAAISKDFTEDRIWLNGREEDVGQPRLQACLREIRRLARKRRSTGDGDALPLSLGYKVHVASVNNFPTAAGLASSAAGYACLAYTLARVYGVEGDLSEVARRGSGSACRSLYGGFVEWQMGEQADGKDSIARQIAPEWHWPQLRVLILVVSAEKKPTGSTVGMQTSVATSTLLKFRAESIVPERMKEMTRCIQEQDFQAFAQLTMKDSNQFHATCLDTFPPISYLNDTSRRIIQLVHRFNAHHGQTKVAYTFDAGPNAVIFTLEDTVAEFVAAVRHSFPPAANGDKFLKGLQVAPVLLSDELKTSLATEPSPGGVQYIIATQVGPGPQVLDDPHHHLLGPDGLPQRDL"}, "B2": {"name": "Diphosphomevalonate decarboxylase (Rattus norvegicus), Q62967 R154A (protein)", "chain": "B1 chain with A27K, R154A"}}, "key": {"Rattus norvegicus": {"organism": "Rattus norvegicus", "assay": "Activity of wild type MDD in rat liver"}, "[1]": {"assay": "Inhibition of rat MDD"}, "[2]": {"substrate": "C[C@@](O)(CCOP(=O)(O)OP(=O)(O)O)CC(=O)O", "assay": "(§1) Activity of MDD K27A mutant", "settings": "Rattus norvegicus"}, "[3]": {"substrate": "Nc1ncnc2c1ncn2[C@@H]1O[C@H](COP(=O)(O)OP(=O)(O)OP(=O)(O)O)[C@@H](O)[C@H]1O", "assay": "as §1", "settings": "Rattus norvegicus"}, "[4]": {"substrate": "C[C@@](O)(CCOP(=O)(O)OP(=O)(O)O)CC(=O)O", "assay": "(§2) Activity of MDD R154A mutant", "settings": "Rattus norvegicus"}, "[5]": {"substrate": "Nc1ncnc2c1ncn2[C@@H]1O[C@H](COP(=O)(O)OP(=O)(O)OP(=O)(O)O)[C@@H](O)[C@H]1O", "assay": "as §2", "settings": "Rattus norvegicus"}}, "note": "Residue numbers refer to the chain shown, from its start. Numbers in names are those of the source."}
{"molecule": "C[C@@](O)(CCOP(=O)(O)OP(=O)(O)O)CC(=O)O", "values": [{"measurement": "Km", "setting": "Rattus norvegicus", "value": 36, "unit": "µM"}, {"measurement": "Vmax", "setting": "Rattus norvegicus", "value": 6.6, "unit": "µmol/min/mg"}]}
{"molecule": "CC(O)(CCOP(=O)(O)OP(=O)(O)O)C(F)(F)C(=O)O", "note": "(stereo unspecified)", "values": [{"measurement": "IC50", "setting": "[1]", "value": 7.5, "unit": "µM"}]}
{"molecule": "CC(C)(O)CCOP(=O)(O)OP(=O)(O)O", "values": [{"measurement": "IC50", "setting": "[1]", "value": 60, "unit": "µM"}]}
{"molecule": "CCCC(C)(O)CCOP(=O)(O)OP(=O)(O)O", "note": "(stereo unspecified)", "values": [{"measurement": "IC50", "setting": "[1]", "value": 120, "unit": "µM"}]}
{"molecule": "CCC(C)(O)CCOP(=O)(O)OP(=O)(O)O", "note": "(stereo unspecified)", "values": [{"measurement": "IC50", "setting": "[1]", "value": 80, "unit": "µM"}]}
{"molecule": "Nc1ncnc2c1ncn2[C@@H]1O[C@H](COP(=O)(O)OP(=O)(O)OP(=O)(O)O)[C@@H](O)[C@H]1O", "values": [{"measurement": "Km", "setting": "Rattus norvegicus", "value": 530, "unit": "µM"}]}
{"molecule": "CCC(O)(CCOP(=O)(O)OP(=O)(O)O)C(F)C(=O)O", "note": "(stereo unspecified)", "values": [{"measurement": "IC50", "setting": "[1]", "value": 20, "unit": "µM"}]}
{"molecule": "CC(O)(CCF)CCOP(=O)(O)OP(=O)(O)O", "note": "(stereo unspecified)", "values": [{"measurement": "IC50", "setting": "[1]", "value": 50, "unit": "µM"}]}
{"molecule": "CC(O)(CCOP(=O)(O)OP(=O)(O)O)Cc1ccccc1", "note": "(stereo unspecified)", "values": [{"measurement": "IC50", "setting": "[1]", "value": 140, "unit": "µM"}]}
{"molecule": "B1", "values": [{"measurement": "Km", "setting": "[2]", "value": 750, "unit": "µM"}, {"measurement": "Vmax", "setting": "[2]", "value": 0.14, "unit": "µmol/min/mg"}, {"measurement": "Km", "setting": "[3]", "value": 1870, "unit": "µM"}]}
{"molecule": "B2", "values": [{"measurement": "Km", "setting": "[4]", "value": 920, "unit": "µM"}, {"measurement": "Vmax", "setting": "[4]", "value": 0.34, "unit": "µmol/min/mg"}, {"measurement": "Km", "setting": "[5]", "value": 1400, "unit": "µM"}]}
